Literature values as cited in patent US7030094B2, “Immunostimulant compositions comprising an aminoalkyl glucosaminide phosphate and QS-21” (priority 2002, dated 2006).
Like-named read-outs stand apart in the source and are kept apart here.

QS-21
critical micellar concentration (in phosphate buffered saline): ~0.02 % (w/v) | critical micellar concentration (in water): about 0.03 % (w/v) | concentration causing hemolysis of sheep red blood cells (sheep red blood cells): ≥ 25000 ng/mL
